Columns and labels:
Assay in all cases: relative viability (nuclei count vs DMSO), 5 days (fraction); higher = more cells survive
[1] = compound: CS(=O)(=O)N1CCN(Cc2cc3nc(-c4cccc5[nH]ncc45)nc(N4CCOCC4)c3s2)CC1 [Pictilisib] + CC1(C)CCC(c2ccc(Cl)cc2)=C(CN2CCN(c3ccc(C(=O)NS(=O)(=O)c4ccc(N[C@H](CCN5CCOCC5)CSc5ccccc5)c(S(=O)(=O)C(F)(F)F)c4)cc3)CC2)C1 [Navitoclax] (partner 0.5 µM)
Method in brief: (§1)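 After 5 days of treatment, lung cancer cells in 1536-well plates were fixed and stained in a single step (final 0.05% Triton X-100, 1% formaldehyde, 1 ug/ml Hoechst) and their nuclei counted on 4× images. Treatment had been applied by pin tool the day after seeding as one drug alone or as a fixed anchor-drug dose with five library-drug doses (not always all listed) in √10 steps. Relative viability is the nuclei count of treated wells divided by that of vehicle wells, and values are medians of duplicate plates.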

[2] = compound: NC1(c2ccc(-c3nc4ccn5c(=O)[nH]nc5c4cc3-c3ccccc3)cc2)CCC1 [MK-2206] + NC(=O)Nc1cc(-c2cccc(F)c2)sc1C(=O)N[C@H]1CCCNC1 [AZD7762] (partner 0.2 µM)
Method in brief: as §1

[3] = compound: CS(=O)(=O)N1CCN(Cc2cc3nc(-c4cccc5[nH]ncc45)nc(N4CCOCC4)c3s2)CC1 [Pictilisib] + Cc1nc(NC(=O)N2CCC[C@H]2C(N)=O)sc1-c1ccnc(C(C)(C)C(F)(F)F)c1 [Alpelisib] (partner 2 µM)
Method in brief: as §1

[4] = compound: CS(=O)(=O)N1CCN(Cc2cc3nc(-c4cccc5[nH]ncc45)nc(N4CCOCC4)c3s2)CC1 [Pictilisib] + CC(C)C[C@H](NC(=O)[C@H](Cc1ccccc1)NC(=O)c1cnccn1)B(O)O [Bortezomib] (partner 0.002 µM)
Method in brief: as §1

[5] = compound: NC1(c2ccc(-c3nc4ccn5c(=O)[nH]nc5c4cc3-c3ccccc3)cc2)CCC1 [MK-2206] + CC1(C)CCC(c2ccc(Cl)cc2)=C(CN2CCN(c3ccc(C(=O)NS(=O)(=O)c4ccc(N[C@H](CCN5CCOCC5)CSc5ccccc5)c(S(=O)(=O)C(F)(F)F)c4)cc3)CC2)C1 [Navitoclax] (partner 0.5 µM)
Method in brief: as §1

Cell Line	relative viability ([1]; first compound 0.02 µM)	relative viability ([1]; first compound 0.06325 µM)	relative viability ([1]; first compound 0.6325 µM)	relative viability ([1]; first compound 2 µM)	relative viability ([2]; first compound 0.01 µM)	relative viability ([2]; first compound 0.03162 µM)	relative viability ([2]; first compound 0.3162 µM)	relative viability ([2]; first compound 1 µM)	relative viability ([3]; first compound 0.02 µM)	relative viability ([3]; first compound 0.06325 µM)	relative viability ([3]; first compound 0.6325 µM)	relative viability ([3]; first compound 2 µM)	relative viability ([4]; first compound 0.02 µM)	relative viability ([4]; first compound 0.06325 µM)	relative viability ([4]; first compound 0.6325 µM)	relative viability ([4]; first compound 2 µM)	relative viability ([5]; first compound 0.01 µM)	relative viability ([5]; first compound 0.03162 µM)	relative viability ([5]; first compound 0.3162 µM)	relative viability ([5]; first compound 1 µM)
201T	1.23	1.18	1.24	0.792	0.663	0.431	0.649	0.599	1.01	1.02	0.979	0.773	1.12	1.1	1.07	0.993	1.23	1.28	1.23	1.21
A549	1.32	1.25	0.919	0.401					0.785	0.627	0.619	0.345					1.19	1.08	1.11	0.991
A-427	0.952	0.785	1.04	0.809	0.751	0.596	0.598	0.601	1.13	1.09	1.06	1.04	1.03	0.949	0.985	0.858	0.937	0.877	0.849	0.902
ABC-1					0.795	0.787	0.85	0.814	1.1	1.04	0.995	0.809	0.313	0.316	0.281	0.223				
BEN	0.0665	0.0632	0.0606	0.0433	0.729	0.621	0.713	0.601	0.813	1.08	1.03	0.704	0.811	0.941	0.762	0.489	0.069	0.0836	0.0745	0.0466
CAL-12T	1.29	1.24	1.2	1.07	0.617	0.455	0.716	0.664	1.32	1.12	1.19	0.883	1.13	1.15	0.816	0.527	0.963	1.32	1.22	1.14
COR-L23	1.1	1.15	0.949	0.561					0.821	0.804	0.8	0.572	1.1	1.04	1.03	0.963	0.969	1.14	1.07	0.877
COR-L 105	0.739	0.77	0.679	0.521					1.08	0.957	0.861	0.692	1.1	0.658	0.779	0.527	0.82	0.741	0.815	0.481
Calu-6	0.911	0.855	0.656	0.569					1.01	0.967	0.909	0.833	1.09	0.933	0.925	0.894	0.937	0.9	0.861	0.828
ChaGo-K-1	1.19	1.32	0.987	0.826	0.875	0.796	0.858	0.93					1.16	1.1	1.09	0.828	1.3	1.17	0.816	0.454
EBC-1	0.38	0.412	0.164	0.126					0.904	0.836	0.67	0.295	0.474	0.603	0.414	0.255	0.455	0.385	0.23	0.131
EKVX	0.971	0.958	0.675	0.377	0.738	0.886	0.751	0.704	0.913	0.882	0.761	0.339	1.13	0.937	0.66	0.394	0.859	1.05	0.934	0.65
EMC-BAC-2	1.1	1.14	1.07	0.649	1.06	1.17	1.02	0.852	0.754	0.766	0.721	0.577	1.05	1.2	0.917	0.68	1.13	1.14	1.15	1.08
EPLC-272H	1.32	1.05	1.01	0.733	0.23	0.185	0.202	0.175	1.06	0.877	0.826	0.738	0.971	1.12	0.607	0.615	0.915	1.18		1.08
H3255	0.626	0.516	0.498	0.173	0.865	0.883	0.903	0.829	0.684	0.601	0.601	0.523	0.881	0.832	0.632	0.395	0.519	0.579	0.439	0.312
HARA	1.2	1.13	1.09	1.08	0.0277	0.264	0.179	0.4	0.766	0.888	0.768	0.494	1.21	1.14	1.08	0.842	1.08	1.11	1.24	1.17
HCC-15	0.634	0.644	0.601	0.328	1.01	1.24	1.24	1.23	0.829	0.926	0.829	0.714	1.01	1.01	1.02	0.899	0.687	0.622	0.617	0.62

— the supplement of paper PMC10307832
